From US20240270701A1, “BETA ADRENERGIC AGONIST AND METHODS OF USING THE SAME” (Curasen Therapeutics, Inc., priority 2021, published 2024)
Where two headings read alike, the source gives them in different places.

Key:
[1] = biological target: T1, B2-AR (Homo sapiens, UniProt P07550); assay: cAMP Gs dynamic HTRF assay, cells expressing beta-adrenergic receptor (CHO-K1), B2-AR; assay type: cell-based; conditions: for EC50: read-out: pEC50 [B2-AR] (converted); for Emax: read-out: Emax (% iso) (%) [B2-AR]
T1 construct: expressed in transfected cells; host or cells: CHO-K1
T1 sequence (P07550 whole entry, species assumed): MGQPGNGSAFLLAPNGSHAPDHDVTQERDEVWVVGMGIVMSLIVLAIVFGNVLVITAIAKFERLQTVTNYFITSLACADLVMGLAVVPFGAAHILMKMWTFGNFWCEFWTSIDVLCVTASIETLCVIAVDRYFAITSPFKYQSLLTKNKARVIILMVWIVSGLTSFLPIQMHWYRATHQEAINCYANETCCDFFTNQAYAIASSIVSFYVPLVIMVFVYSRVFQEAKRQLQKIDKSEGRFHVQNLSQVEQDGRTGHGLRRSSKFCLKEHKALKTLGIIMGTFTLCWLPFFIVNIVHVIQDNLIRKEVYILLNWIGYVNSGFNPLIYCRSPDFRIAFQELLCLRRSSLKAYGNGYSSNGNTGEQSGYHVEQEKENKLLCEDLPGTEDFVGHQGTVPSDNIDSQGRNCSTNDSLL
Experimental: (§1) cAMP homogeneous time-resolved fluorescence (HTRF): experimental methods. Compound efficacy is determined using the cAMP Gs dynamic HTRF assay (Cisbio, catalog #62AM4PEC) largely following the manufacturer's instructions, also detailed below.
(§2) Standard serial dilution curves are 10-point, 5-fold dilutions starting from a highest concentration of 10 μM. Controls present on every assay plate are 0.1% DMSO (vehicle control), 1 μM isoproterenol (full beta-adrenergic agonist control) and […] xamoterol (partial beta-adrenergic agonist control). […] Assay plates are centrifuged at 500×g for 10 seconds. Compounds and IBMX are prepared at 2× final dose to compensate for addition of cells.
(§3) Cell preparation: 1× stimulation buffer, washing PBS (Dulbecco's phosphate-buffered saline, − Mg − Ca; Caisson Labs, catalog #PBL01), assay PBS (Dulbecco's phosphate-buffered saline, + Mg, + Ca; Caisson Labs, catalog #PBL02) and Versene (0.02% EDTA disodium salt solution in PBS without calcium or magnesium; Caisson Labs, catalog #EDL01) are pre-warmed to 37° C. Cells expressing beta-adrenergic receptor were washed in washing PBS to remove growth medium and then released from the surface by incubating with Versene for 5-10 minutes at 37° C. Cells are harvested using assay PBS, counted manually by hemocytometer or by an automated cell counter, pelleted by centrifugation (200×g, 5 minutes) and resuspended in 37° C. 1× stimulation buffer to a final density of 1.5×10^6 cells/mL. 5 μL of the suspended cell solution (7500 cell total) are added to all wells of the 384 well assay plate, the assay plate was covered with an Axygen® plate seal (Corning PCR-SP) and incubated in a humidified 37° C. environment supplemented with 5% CO2 for 30 minutes.
(§4) HTRF reagent addition, reading and data analysis: After 30 minutes of cell stimulation with test compound, the assay plates are centrifuged at 500×g for 10 seconds, and incubation was stopped with the addition of 5 μL cAMP-D2 acceptor, diluted 1:21 in detection and lysis buffer 2 (Cisbio 62CL2FDF) was added to all cells. Subsequently, 5 μL Anti-cAMP-Eu Donor, diluted 1:21 in detection and lysis buffer 2, was added to cells. Plates were sealed and reactions gently ‘vortexed’ at 900 rpm on a Heidolph Titramax 1000 for at least 30 minutes at room temperature. Plates are centrifuged again at 500×g for 10 seconds, and HTRF was measured using a Tecan Spark plate reader at 50 flashes per well. […] Potency estimates (EC50 and pEC50) are derived from the four-parameter nonlinear regression of the concentration-effect curve and an estimate of relative efficacy is determined by comparing the magnitude of the test compound HTRF signal window (min−max dose) with the signal window of the full agonist control, isoproterenol.

[2] = biological target: T2, B1-AR (Homo sapiens, UniProt P08588); assay: cAMP Gs dynamic HTRF assay, cells expressing beta-adrenergic receptor (CHO-K1), B1-AR; assay type: cell-based; conditions: for EC50: read-out: pEC50 [B1-AR] (converted); for Emax: read-out: Emax (% iso) (%) [B1-AR]
T2 construct: expressed in transfected cells; host or cells: CHO-K1
T2 sequence (P08588 whole entry, species assumed): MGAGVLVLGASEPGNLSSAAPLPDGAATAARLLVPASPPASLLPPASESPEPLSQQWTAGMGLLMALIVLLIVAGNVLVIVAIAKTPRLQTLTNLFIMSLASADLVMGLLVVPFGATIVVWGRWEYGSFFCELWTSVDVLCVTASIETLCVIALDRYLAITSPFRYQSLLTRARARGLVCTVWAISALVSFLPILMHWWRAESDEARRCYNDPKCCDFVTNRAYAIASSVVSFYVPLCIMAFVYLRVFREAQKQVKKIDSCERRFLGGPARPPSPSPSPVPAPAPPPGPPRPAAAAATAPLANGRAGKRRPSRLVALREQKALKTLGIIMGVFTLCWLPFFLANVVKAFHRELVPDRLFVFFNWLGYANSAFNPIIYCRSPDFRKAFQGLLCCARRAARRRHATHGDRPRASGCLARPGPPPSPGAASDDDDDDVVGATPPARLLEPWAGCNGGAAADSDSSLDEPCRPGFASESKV
Experimental: as §1, §2, §3, §4

[3] = CHO-K1 cells, relative to full agonist isoproterenol
[4] = relative to full agonist isoproterenol
[5] = CHO-K1, CHO-K1 cells, relative to full agonist isoproterenol

Compound | EC50 ([1]; CHO-K1 cells, cAMP HTRF) | Emax [1, 3] | EC50 ([2]; cAMP HTRF) | Emax [2, 4] | Emax [1, 5] | pEC50 [B2-AR] ([1]; CHO-K1 cells, cAMP HTRF) | Emax (% iso) (%) [B2-AR] [1, 3] | pEC50 [B1-AR] ([2]; cAMP HTRF) | Emax (% iso) (%) [B1-AR] [2, 4]
CC(C)(C)CNC[C@H](O)c1ccc(Cl)c2[nH]ncc12 [I-68] | < 10 nM | 70 to 90% | 10 to 100 nM | 70 to 90% | – | – | – | – | –
CC(C)(C)CNC[C@H](O)c1cc(C#N)cc2[nH]ncc12 [I-69] | 100 to 1000 nM | – | > 1000 nM | 50 to 70% | 70 to 90% | – | – | – | –
CNc1ncc([C@@H](O)CNC(C)(C)C)cn1 [I-70] | 10 to 100 nM | 50 to 70% | 100 to 1000 nM | 70 to 90% | – | – | – | – | –
Cc1cc([C@@H](O)CNC(C)(C)C)cc2cccnc12 [I-71] | 10 to 100 nM | < 50% | 100 to 1000 nM | 50 to 70% | – | – | – | – | –
Cc1ccnc2ccc([C@@H](O)CNC(C)(C)C)cc12 [I-72] | 10 to 100 nM | – | 100 to 1000 nM | 50 to 70% | < 50% | – | – | – | –
Cc1cnc2ccc([C@@H](O)CNC(C)(C)C)cc2c1 [I-73] | 100 to 1000 nM | < 50% | > 1000 nM | < 50% | – | – | – | – | –
COc1ccnc2ccc([C@@H](O)CNC(C)(C)C)cc12 [I-74] | > 1000 nM | – | 100 to 1000 nM | < 50% | < 50% | – | – | – | –
O[C@@H](CNCC1CC1)c1ccc(F)c2[nH]ncc12 [I-75] | < 10 nM | – | < 10 nM | 70 to 90% | > 90% | – | – | – | –
O[C@@H](CNCC1CC1)c1cccc2[nH]ncc12 [I-76] | < 10 nM | > 90% | < 10 nM | 70 to 90% | – | – | – | – | –
CC(C)(C)NC[C@H](O)c1ccc2ncncc2c1 [I-77] | 100 to 1000 nM | – | > 1000 nM | 50 to 70% | 50 to 70% | – | – | – | –
Cn1ccc(CNC[C@H](O)c2cccc3[nH]nc(F)c23)n1 [I-78] | 100 to 1000 nM | > 90% | 100 to 1000 nM | 70 to 90% | – | – | – | – | –
Cc1cc2ncccc2cc1[C@@H](O)CNC(C)(C)C [I-79] | 100 to 1000 nM | < 50% | > 1000 nM | > 90% | – | – | – | – | –
CC(C)(C)NC[C@H](O)c1cc2cccnc2cc1Cl [I-80] | 10 to 100 nM | – | 100 to 1000 nM | 70 to 90% | < 50% | – | – | – | –
CC1(CNC[C@H](O)c2ccc(F)c3[nH]ncc23)CC1 [I-81] | < 10 nM | > 90% | 10 to 100 nM | 70 to 90% | – | – | – | – | –
Cc1ccc2cc([C@@H](O)CNC(C)(C)C)ccc2n1 [I-82] | > 1000 nM | < 50% | > 1000 nM | < 50% | – | – | – | – | –
CC(C)(C)NC[C@H](O)c1ccc2nccnc2c1 [I-83] | 10 to 100 nM | 50 to 70% | 10 to 100 nM | 70 to 90% | – | – | – | – | –
Cn1ncc2c([C@@H](O)CNC(C)(C)C)cc(F)cc21 [I-84] | – | – | – | – | – | A (A=>8) | B (B=>70-90%) | B (B=>7-8) | B (B=>70-90%)
CC(C)(C)NC[C@H](O)c1cccc2c(F)n[nH]c12 [I-85] | 100 to 1000 nM | – | 100 to 1000 nM | 70 to 90% | 50 to 70% | – | – | – | –
CC(C)(C)NC[C@H](O)c1cnc(N)s1 [I-86] | 100 to 1000 nM | – | > 1000 nM | 70 to 90% | 70 to 90% | – | – | – | –
CC(C)(C)CNC[C@H](O)c1ccc(F)c2[nH]ncc12 [I-87] | 10 to 100 nM | 70 to 90% | 100 to 1000 nM | 50 to 70% | – | – | – | – | –
CC(C)(C)CNC[C@H](O)c1cccc2[nH]ncc12 [I-88] | < 10 nM | > 90% | 100 to 1000 nM | 70 to 90% | – | – | – | – | –
CC(C)(C)CNC[C@H](O)c1cccc2[nH]nc(F)c12 [I-90] | 10 to 100 nM | – | 100 to 1000 nM | 70 to 90% | > 90% | – | – | – | –
CC1C(=O)Nc2cccc([C@@H](O)CNC(C)(C)C)c21 (stereo partly drawn) [I-91] | > 1000 nM | < 50% | > 1000 nM | < 50% | – | – | – | – | –
CC(C)(C)CNC[C@H](O)c1cc(F)cc2[nH]ncc12 [I-92] | < 10 nM | – | 10 to 100 nM | 70 to 90% | > 90% | – | – | – | –
